Literature values in patent US20230381101A1, “AQUEOUS PHARMACEUTICAL COMPOSITIONS COMPRISING SGLT-2 INHIBITORS” (Boehringer Ingelheim Vetmedica GmbH, priority 2022, published 2023).

Details: n-octanol/water; values taken from http://www.chemicalize.org/
In the case of `CC(=O)N(C)C` [N,N-dimethylacetamide], the log10P is listed as −0.583. In the case of `CCO` [ethanol], the log10P is given as −0.16. In the case of `OCC(O)CO` [propane-1,2,3-triol], the log10P is listed as −1.84.
